Experimental data published in patent publication US8524755B2 (priority 2009, dated 2013).

Tests used:
[1] = biological target: T1, PDE4D (h) (Homo sapiens, UniProt Q08499); assay: Enzyme assay PDE4D (h); assay type: biochemical; conditions: read-out: % Inhibition of Control Values @ 10 μM
T1 construct: host or cells: Sf9 cells
Excerpt: (§1) The enzyme assays provided below will be familiar to those skilled in the art.
(§2) Analysis and Expression of Results: The results are expressed as a percent of control specific activity ((measured specific activity/control specific activity)×100) obtained in the presence of the test compounds.

[2] = biological target: T2, Cannabinoid CB1 (h) (Homo sapiens, UniProt P21554); assay: Binding CB1 (h) (ag); conditions: read-out: % Inhibition of Control Specific Binding @ 10 μM
T2 construct: expressed in transfected cells; host or cells: CHO cells
T2 sequence (P21554 whole entry): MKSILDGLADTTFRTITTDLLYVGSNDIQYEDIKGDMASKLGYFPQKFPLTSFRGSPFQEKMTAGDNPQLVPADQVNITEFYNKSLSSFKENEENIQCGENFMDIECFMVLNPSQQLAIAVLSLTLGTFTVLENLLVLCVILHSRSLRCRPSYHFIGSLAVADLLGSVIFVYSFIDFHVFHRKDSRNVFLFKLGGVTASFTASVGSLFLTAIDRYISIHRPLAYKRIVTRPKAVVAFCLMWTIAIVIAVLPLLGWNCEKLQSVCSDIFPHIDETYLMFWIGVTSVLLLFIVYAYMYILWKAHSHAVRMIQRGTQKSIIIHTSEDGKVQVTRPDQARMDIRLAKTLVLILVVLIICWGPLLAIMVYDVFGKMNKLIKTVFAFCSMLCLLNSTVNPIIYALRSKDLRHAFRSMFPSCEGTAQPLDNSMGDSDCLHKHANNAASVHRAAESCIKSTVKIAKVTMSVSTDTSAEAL
Method: (§3) Radioligand binding assay methods utilized to measure the activity of compounds of the invention will be familiar to those skilled in the art. In each assay case, the assay components such as, for example, the cell-type, ligand, reference compound and the like, will be familiar to practitioners of such an assay.
(§4) Analysis and Expression of Results: Compounds of the invention were tested in the biochemical assays and percent inhibition of specific binding was determined. The specific ligand binding to the receptors is defined as the difference between the total binding and the nonspecific binding determined in the presence of an excess of unlabelled ligand. The results are expressed as a percent inhibition of control specific binding (100−((measured specific binding/control specific binding)×100)) obtained in the presence of test compounds.

[3] = system: SKCa channel; assay: Binding SKCa channel (aa); parameters: species or system rat
Method: as §3, §4

[4] = biological target: T3, Vasopressin V1a (h) (Homo sapiens, UniProt P37288); assay: Binding V1a (h) (ag); conditions: read-out: % Inhibition of Control Specific Binding @ 10 μM
T3 construct: expressed in transfected cells; host or cells: CHO cells
T3 sequence (P37288 whole entry): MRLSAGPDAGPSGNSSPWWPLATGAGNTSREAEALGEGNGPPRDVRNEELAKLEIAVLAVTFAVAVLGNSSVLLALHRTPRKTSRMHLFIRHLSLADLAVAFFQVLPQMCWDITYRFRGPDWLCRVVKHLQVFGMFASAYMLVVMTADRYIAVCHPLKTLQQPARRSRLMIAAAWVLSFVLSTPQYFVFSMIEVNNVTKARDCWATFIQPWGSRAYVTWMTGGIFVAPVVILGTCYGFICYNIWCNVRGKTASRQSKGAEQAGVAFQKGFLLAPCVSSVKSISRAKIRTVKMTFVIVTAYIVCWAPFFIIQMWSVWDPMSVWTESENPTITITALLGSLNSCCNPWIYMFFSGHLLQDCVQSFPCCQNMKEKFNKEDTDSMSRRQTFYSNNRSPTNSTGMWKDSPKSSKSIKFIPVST
Method: as §3, §4

[5] = system: Neuropeptide Y (ns); assay: Binding Y (ns) (ag); parameters: species or system rat
Method: as §3, §4

[6] = system: P2X; assay: Binding P2X (ag); parameters: species or system rat
Method: as §3, §4

[7] = biological target: T4, guanylyl cyclase (basal) (Bos taurus, UniProt P16068+P19687); assay: Enzyme assay guanylyl cyclase (basal); assay type: biochemical, bovine
T4 construct: bovine lung; from tissue; host or cells: bovine lung
T4 sequence (P19687 1-691): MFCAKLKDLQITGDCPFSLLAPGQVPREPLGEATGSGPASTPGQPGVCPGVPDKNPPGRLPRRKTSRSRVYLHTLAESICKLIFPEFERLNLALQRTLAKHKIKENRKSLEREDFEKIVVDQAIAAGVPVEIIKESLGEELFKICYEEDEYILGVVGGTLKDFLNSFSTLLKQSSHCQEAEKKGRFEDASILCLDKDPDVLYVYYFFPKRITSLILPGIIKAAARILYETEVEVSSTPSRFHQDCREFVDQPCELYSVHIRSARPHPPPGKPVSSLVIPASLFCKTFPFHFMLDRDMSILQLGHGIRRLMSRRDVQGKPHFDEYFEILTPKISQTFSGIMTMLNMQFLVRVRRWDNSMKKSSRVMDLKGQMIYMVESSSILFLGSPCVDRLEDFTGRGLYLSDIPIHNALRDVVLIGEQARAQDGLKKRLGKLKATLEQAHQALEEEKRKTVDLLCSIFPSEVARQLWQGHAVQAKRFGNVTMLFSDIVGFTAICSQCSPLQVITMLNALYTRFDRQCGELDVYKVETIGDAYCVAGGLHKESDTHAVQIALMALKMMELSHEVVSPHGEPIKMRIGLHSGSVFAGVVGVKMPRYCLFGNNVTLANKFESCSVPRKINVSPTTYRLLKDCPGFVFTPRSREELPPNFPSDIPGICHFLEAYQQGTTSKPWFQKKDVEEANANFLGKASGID
T4 sequence (P16068 1-619): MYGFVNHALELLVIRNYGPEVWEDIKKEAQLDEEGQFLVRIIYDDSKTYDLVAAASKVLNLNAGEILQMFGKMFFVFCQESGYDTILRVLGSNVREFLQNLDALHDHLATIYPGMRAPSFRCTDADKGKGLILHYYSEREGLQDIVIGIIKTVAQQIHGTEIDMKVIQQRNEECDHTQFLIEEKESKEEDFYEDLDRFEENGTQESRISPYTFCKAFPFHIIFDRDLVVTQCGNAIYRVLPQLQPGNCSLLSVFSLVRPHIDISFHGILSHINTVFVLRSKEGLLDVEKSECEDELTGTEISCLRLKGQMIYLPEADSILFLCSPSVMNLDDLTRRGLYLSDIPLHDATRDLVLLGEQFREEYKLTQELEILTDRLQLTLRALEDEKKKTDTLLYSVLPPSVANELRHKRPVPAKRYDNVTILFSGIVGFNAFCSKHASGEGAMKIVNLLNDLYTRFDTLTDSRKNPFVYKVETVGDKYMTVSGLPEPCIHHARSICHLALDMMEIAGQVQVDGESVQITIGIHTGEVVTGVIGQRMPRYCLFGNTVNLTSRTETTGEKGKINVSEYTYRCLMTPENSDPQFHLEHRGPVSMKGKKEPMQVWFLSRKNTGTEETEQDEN
Excerpt: as §1, §2

[8] = biological target: T5, Bradykinin B2 (h) (Homo sapiens, UniProt P30411); assay: Binding B2 (h) (ag); conditions: read-out: % Inhibition of Control Specific Binding @ 10 μM
T5 construct: expressed in transfected cells; host or cells: CHO cells
T5 sequence (P30411 1-391): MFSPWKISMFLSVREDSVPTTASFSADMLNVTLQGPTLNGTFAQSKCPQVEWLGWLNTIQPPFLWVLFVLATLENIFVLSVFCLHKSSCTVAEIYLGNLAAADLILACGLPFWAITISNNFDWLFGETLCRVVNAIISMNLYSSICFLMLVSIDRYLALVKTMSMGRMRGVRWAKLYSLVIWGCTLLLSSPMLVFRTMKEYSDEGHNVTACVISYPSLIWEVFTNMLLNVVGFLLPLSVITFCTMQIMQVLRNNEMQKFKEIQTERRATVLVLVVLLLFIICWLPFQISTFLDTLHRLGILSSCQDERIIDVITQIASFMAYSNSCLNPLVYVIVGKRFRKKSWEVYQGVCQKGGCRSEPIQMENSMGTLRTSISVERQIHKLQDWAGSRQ
Method: as §3, §4

[9] = biological target: T6, norepinephrine transporter (h) (Homo sapiens, UniProt P23975); assay: Binding norepinephrine transporter (h) (aa); conditions: read-out: % Inhibition of Control Specific Binding @ 10 μM
T6 construct: expressed in transfected cells; host or cells: CHO cells
T6 sequence (P23975 whole entry): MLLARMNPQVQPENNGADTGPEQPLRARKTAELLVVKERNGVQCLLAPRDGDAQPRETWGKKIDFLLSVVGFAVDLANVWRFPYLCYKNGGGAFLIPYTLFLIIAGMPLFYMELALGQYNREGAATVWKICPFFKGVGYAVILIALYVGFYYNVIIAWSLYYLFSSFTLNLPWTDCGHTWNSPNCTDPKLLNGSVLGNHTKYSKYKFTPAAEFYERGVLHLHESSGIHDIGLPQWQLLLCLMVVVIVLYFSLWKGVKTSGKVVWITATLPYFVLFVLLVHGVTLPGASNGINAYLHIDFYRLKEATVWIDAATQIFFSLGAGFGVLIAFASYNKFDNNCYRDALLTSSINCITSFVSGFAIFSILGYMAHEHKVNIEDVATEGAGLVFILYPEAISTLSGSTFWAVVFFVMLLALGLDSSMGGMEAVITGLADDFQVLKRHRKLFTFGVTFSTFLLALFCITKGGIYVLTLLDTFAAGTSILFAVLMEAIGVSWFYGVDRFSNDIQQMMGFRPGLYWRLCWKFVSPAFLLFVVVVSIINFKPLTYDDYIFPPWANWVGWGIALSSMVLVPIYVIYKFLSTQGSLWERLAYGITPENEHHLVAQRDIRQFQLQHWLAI
Method: as §3, §4

[10] = system: KATP channel; assay: Binding KATP channel (aa); parameters: species or system rat
Method: as §3, §4

[11] = biological target: T7, β2 (h) (Homo sapiens, UniProt P07550); assay: Binding β2 (h) (ag); conditions: read-out: % Inhibition of Control Specific Binding @ 10 μM
T7 construct: expressed in transfected cells; host or cells: CHO cells
T7 sequence (P07550 whole entry): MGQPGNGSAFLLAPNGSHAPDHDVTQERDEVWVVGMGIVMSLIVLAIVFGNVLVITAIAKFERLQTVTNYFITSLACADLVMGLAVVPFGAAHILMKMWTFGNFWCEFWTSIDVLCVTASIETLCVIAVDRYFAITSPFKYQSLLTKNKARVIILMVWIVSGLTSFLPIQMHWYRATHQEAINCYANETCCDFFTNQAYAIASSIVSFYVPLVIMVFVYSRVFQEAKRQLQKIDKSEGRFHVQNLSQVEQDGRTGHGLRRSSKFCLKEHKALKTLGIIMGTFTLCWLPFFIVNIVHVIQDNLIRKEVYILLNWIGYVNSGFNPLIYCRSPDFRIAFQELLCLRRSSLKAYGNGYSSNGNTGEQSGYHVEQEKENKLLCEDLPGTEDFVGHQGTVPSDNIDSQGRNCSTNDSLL
Method: as §3, §4

[12] = system: AMPA; assay: Binding AMPA (ag); parameters: species or system rat
Method: as §3, §4

[13] = system: Thyroid hormone TR (TH); assay: Binding TR (TH) (ag); parameters: species or system rat
Method: as §3, §4

T1 sequence (Q08499 whole entry): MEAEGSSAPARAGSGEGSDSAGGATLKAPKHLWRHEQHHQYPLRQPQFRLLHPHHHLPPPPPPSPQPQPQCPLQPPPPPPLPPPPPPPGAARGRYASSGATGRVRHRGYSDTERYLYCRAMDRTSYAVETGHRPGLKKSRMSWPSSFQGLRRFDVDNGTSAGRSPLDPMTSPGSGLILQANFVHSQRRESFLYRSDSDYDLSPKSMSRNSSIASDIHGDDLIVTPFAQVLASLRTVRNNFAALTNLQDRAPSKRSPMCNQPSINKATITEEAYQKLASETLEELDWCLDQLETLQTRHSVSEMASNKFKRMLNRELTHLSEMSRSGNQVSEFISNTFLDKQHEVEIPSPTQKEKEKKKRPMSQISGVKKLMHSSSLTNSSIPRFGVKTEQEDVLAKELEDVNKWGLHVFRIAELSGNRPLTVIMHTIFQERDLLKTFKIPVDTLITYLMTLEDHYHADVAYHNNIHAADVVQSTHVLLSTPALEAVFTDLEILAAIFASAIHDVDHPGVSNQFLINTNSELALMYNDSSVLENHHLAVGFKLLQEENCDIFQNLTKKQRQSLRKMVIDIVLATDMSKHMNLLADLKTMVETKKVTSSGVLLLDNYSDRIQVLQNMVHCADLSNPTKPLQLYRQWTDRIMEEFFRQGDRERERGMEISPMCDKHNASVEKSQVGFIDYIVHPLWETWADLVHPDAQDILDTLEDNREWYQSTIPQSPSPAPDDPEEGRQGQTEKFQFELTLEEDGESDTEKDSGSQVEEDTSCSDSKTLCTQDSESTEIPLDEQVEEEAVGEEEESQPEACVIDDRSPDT

Row | Compound | inhibition at 10 µM [1] | inhibition at 10 µM [2] | % Inhibition of Control Specific Binding @ 10 μM [3] | inhibition at 10 µM [4] | % Inhibition of Control Specific Binding @ 10 μM [5] | % Inhibition of Control Specific Binding @ 10 μM [6] | % Stimulation Relative to Control @ 10 μM [7] | inhibition at 10 µM [8] | inhibition at 10 µM [9] | % Inhibition of Control Specific Binding @ 10 μM [10] | inhibition at 10 µM [11] | % Inhibition of Control Specific Binding @ 10 μM [12] | % Inhibition of Control Specific Binding @ 10 μM [13]
1 | CC1(C)C(=O)N(c2ccc(C#N)c(C(F)(F)F)c2)C(=S)N1c1ccc(C(=O)O)c(F)c1 [(MI), 4-(3-(4-cyano-3-(trifluoromethyl)phenyl)-5,5-dimethyl-4-oxo-2-thioxoimidazolidin-1-yl)-2-fluorobenzoic acid] | 1% | -20% | −6% | 2% | −6% | 4% | 0% | 2% | 56% | 17% | 6% | 1% | −7%
2 | CC1(C)C(=O)N(c2ccc(C#N)c(C(F)(F)F)c2)C(=S)N1c1ccc(C(N)=O)c(F)c1 [(MII), 4-(3-(4-Cyano-3-(trifluoromethyl)phenyl)-5,5-dimethyl-4-oxo-2-thioxoimidazolidin-1-yl)-2-fluorobenzamide] | -9% | 11% | 4% | 15% | −6% | 4% | 0% | -12% | -13% | 24% | -3% | −10% | 0%
3 | CC1(C)C(=O)N(c2ccc(C#N)c(C(F)(F)F)c2)C(=O)N1c1ccc(C(N)=O)c(F)c1 [(MIII), 4-(3-(4-cyano-3-(trifluoromethyl)phenyl)-5,5-dimethyl-2,4-dioxoimidazolidin-1-yl)-2-fluorobenzamide] | -11% | 6% | 1% | -1% | −2% | 2% | −1% | -3% | 9% | 7% | -6% | −2% | −9%
4 | CNC(=O)c1ccc(N2C(=O)N(c3ccc(C#N)c(C(F)(F)F)c3)C(=O)C2(C)C)cc1F [(MIV), 4-(3-(4-cyano-3-(trifluoromethyl)phenyl)-5,5-dimethyl-2,4-dioxoimidazolidin-1-yl)-2-fluoro-N-methylbenzamide] | -41% | 4% | −10% | -8% | −2% | 2% | 2% | 0% | 20% | 7% | -10% | −4% | −2%
